# Key:
# [1] = biological target: T1, ARAF^SSDD (ARAF^SSDD/MEK1) (Homo sapiens, UniProt P10398, G300S/Y301D/Y302D); test: biochemical
# [2] = biological target: T1, ARAF^SSDD (ARAF^SSDD/MEK1); test: TR-FRET MEK phosphorylation assay, bell-shaped fit; assay type: biochemical
# [3] = biological target: T2, CRAF^SSDD (CRAF^SSDD/MEK1) (Homo sapiens, UniProt P04049, Y340D/Y341D); test: TR-FRET MEK phosphorylation assay, bell-shaped fit; assay type: biochemical
# [4] = biological target: T2, CRAF^SSDD (CRAF^SSDD/MEK1); test: biochemical
# [5] = biological target: T3, ARAF monomer complex (ARAF/MEK1 SASA) (Homo sapiens, UniProt P10398); test: TR-FRET MEK phosphorylation assay, bell-shaped fit; assay type: biochemical
# [6] = biological target: BRAF monomer complex (BRAF/MEK1 SASA) (Homo sapiens, UniProt P15056); test: TR-FRET MEK phosphorylation assay, bell-shaped fit; assay type: biochemical; settings: […] enzyme, […] ATP, […] MEK-B, […] DMSO; unreliable
# [7] = biological target: T4, CRAF monomer complex (CRAF/MEK1 SASA) (Homo sapiens, UniProt P04049); test: TR-FRET MEK phosphorylation assay, bell-shaped fit; assay type: biochemical
# [8] = biological target: T4, CRAF monomer complex (CRAF/MEK1 SASA); test: TR-FRET MEK phosphorylation assay, bell-shaped fit; assay type: biochemical; remark: listed apart in the source
# [9] = biological target: T3, ARAF monomer complex (ARAF/MEK1 SASA); test: TR-FRET MEK phosphorylation assay, bell-shaped fit; assay type: biochemical; remark: listed apart in the source
# T2 sequence (P04049 314-618 Y340D/Y341D): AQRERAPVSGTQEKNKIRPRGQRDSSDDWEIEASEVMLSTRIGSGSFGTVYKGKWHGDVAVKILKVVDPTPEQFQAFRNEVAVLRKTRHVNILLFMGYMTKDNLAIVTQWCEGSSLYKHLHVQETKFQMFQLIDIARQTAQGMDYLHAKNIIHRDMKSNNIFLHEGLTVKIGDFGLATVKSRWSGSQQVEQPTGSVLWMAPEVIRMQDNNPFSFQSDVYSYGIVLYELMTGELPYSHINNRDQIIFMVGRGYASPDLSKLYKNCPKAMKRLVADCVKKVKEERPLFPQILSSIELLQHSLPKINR
# T2 sequence (Q02750 whole entry S218A/S222A partner): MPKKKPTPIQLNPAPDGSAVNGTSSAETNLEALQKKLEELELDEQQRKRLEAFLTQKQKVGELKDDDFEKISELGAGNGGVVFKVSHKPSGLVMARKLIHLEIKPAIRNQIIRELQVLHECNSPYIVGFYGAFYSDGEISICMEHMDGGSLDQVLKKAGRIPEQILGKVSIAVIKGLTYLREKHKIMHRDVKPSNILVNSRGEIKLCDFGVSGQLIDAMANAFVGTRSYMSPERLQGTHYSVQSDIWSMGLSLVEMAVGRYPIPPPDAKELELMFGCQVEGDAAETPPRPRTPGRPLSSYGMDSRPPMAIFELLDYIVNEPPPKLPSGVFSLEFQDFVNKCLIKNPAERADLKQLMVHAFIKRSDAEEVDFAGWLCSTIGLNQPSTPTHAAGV
# T1 sequence (P10398 274-606 G300S/Y301D/Y302D): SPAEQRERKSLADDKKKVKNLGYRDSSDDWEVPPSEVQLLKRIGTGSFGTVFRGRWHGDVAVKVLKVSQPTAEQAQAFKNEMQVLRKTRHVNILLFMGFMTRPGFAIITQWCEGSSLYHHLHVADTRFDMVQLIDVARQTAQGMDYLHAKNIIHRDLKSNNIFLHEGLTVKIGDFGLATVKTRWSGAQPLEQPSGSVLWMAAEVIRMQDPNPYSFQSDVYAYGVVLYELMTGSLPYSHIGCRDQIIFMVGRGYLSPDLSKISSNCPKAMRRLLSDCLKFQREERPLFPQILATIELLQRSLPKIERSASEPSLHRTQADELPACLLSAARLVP
# T1 sequence (Q02750 whole entry S218A/S222A partner): as the sequence (Q02750 whole entry S218A/S222A partner) above
# T3 sequence (P10398 282-579): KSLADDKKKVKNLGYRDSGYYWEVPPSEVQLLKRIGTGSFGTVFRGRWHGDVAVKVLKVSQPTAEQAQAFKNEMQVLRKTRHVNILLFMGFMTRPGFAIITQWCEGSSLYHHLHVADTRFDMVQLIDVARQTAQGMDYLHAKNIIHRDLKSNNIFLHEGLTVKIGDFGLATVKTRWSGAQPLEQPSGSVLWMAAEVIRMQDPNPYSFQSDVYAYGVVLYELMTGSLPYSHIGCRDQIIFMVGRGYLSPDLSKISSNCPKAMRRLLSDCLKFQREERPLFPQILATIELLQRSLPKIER
# T3 sequence (Q02750 whole entry S218A/S222A partner): as the sequence (Q02750 whole entry S218A/S222A partner) above
# T4 sequence (P04049 324-618): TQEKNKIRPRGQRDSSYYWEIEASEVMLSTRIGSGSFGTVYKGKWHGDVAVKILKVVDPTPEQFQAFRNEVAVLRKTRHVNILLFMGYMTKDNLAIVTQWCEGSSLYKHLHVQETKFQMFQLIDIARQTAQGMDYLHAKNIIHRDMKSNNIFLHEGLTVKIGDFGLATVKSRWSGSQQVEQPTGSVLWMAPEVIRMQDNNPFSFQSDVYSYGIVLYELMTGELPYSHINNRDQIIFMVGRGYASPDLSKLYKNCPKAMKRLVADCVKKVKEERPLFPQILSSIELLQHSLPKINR
# T4 sequence (Q02750 whole entry S218A/S222A partner): as the sequence (Q02750 whole entry S218A/S222A partner) above
# Sequence of BRAF monomer complex (BRAF/MEK1 SASA) (P15056 445-723): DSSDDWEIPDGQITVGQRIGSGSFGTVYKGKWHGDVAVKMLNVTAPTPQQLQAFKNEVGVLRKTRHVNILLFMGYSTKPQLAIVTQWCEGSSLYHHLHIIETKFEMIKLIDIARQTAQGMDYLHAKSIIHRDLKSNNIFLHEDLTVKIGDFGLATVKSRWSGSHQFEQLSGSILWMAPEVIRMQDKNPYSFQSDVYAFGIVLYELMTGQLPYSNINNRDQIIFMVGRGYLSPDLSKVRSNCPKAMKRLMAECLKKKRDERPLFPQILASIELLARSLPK
# Sequence of BRAF monomer complex (BRAF/MEK1 SASA) (Q02750 whole entry S218A/S222A partner): as the sequence (Q02750 whole entry S218A/S222A partner) above
AC50 [1] [nM],IC50 [2] [nM],IC50 [3] [nM],AC50 [4] [nM],AC50 [5] [nM],IC50 [6] [nM],AC50 [7] [nM],IC50 [8] [nM],IC50 [9] [nM],Compound
1.72 ± 1.24,44.4 ± 17.6,,,,,,,,Cc1ccc(NC(=O)c2cccc(C(C)(C)C#N)c2)cc1Nc1ccc2ncn(C)c(=O)c2c1 [AZ628]
,,34.6 ± 5.15,0.07 ± 0.06,,,,,,Cc1ccc2c(Nc3cccc(Cl)c3F)nccc2c1NC(=O)c1csc2c(N)ncnc12 [Belvarafenib]
13.3 ± 5.15,673 ± 488,79.2 ± 24.1,0.06 ± 0.04,,,,,,Cc1ccc(NC(=O)c2ccnc(C(F)(F)F)c2)cc1-c1cc(OCCO)nc(N2CCOCC2)c1 [Naporafenib]
7.62 ± 2.83,> 10000,> 10000,3.46 ± 1.49,11.7 ± 14.3,1915 ± 889,242 ± 19.5,> 10000,> 10000,CN(C)CCOc1ccc(-c2nc(-c3ccncc3)c(-c3ccc4c(c3)CC/C4=N\O)[nH]2)cc1 [SB590885]
